From ChEMBL document CHEMBL4673176, “Virulence attenuating combination therapy: a potential multi-target synergy approach to treat Pseudomonas aeruginosa infections in cystic fibrosis patients” (RSC Med Chem, 2020)
Each block holds one compound with its values, some of them ahead of it.

Assays:
Pseudomonas aeruginosa [1] = experiment: Inhibition of quorum sensing system in Pseudomonas aeruginosa MCC-2080 assessed as reduction in biofilm formation incubated for 24 hrs by crystal violet staining based UV-Vis spectrophotometric method relative to control
Pseudomonas aeruginosa [2] = experiment: Antibacterial activity against Pseudomonas aeruginosa PAO1 infected in C57BL/6J mouse assessed as mouse survival at 100 uM administered intranasally at the time of infection and every 12 hrs and measured over 96 hrs; format: functional; conditions: PAO1, inhaled or nasal
[3] = Competitive inhibition of FAM-labelled PscF (69 to 85 residues) binding to Pseudomonas aeruginosa PscE/PscG by fluorescence polarization
[4] = target: T1, Transcriptional regulator MvfR (Pseudomonas aeruginosa PA14) (UniProt A0A072ZLE6); experiment: Inhibition of PqsR in Pseudomonas aeruginosa PA14 assessed as potentiation of tobramycin-mediated reduction in biofilm CFU at 10 uM incubated for 24 hrs relative to tobramycin alone
T1 sequence (whole entry): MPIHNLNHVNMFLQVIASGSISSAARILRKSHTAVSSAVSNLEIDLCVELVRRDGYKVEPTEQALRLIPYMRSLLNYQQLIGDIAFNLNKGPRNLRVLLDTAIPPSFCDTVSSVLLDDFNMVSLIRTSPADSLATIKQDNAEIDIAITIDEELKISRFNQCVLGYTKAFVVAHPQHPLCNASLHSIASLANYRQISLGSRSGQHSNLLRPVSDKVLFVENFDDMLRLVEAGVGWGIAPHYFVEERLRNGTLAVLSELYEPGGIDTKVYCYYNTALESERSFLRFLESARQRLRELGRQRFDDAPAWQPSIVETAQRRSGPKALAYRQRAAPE

[5] = target: T1, Transcriptional regulator MvfR (Pseudomonas aeruginosa PA14); experiment: Inhibition of PqsR in Pseudomonas aeruginosa PA14 assessed as potentiation of meropenem-mediated reduction in biofilm CFU at 10 uM incubated for 24 hrs relative to meropenem alone
[6] = Inhibition of PqsR/PqsD in Pseudomonas aeruginosa PA14 assessed as reduction in biofilm formation by crystal violet assay

IC85 (Pseudomonas aeruginosa [1]): 100 µM
SMILES: O=c1c(O)c(-c2ccccc2)oc2cc(O)cc(O)c12

SMILES: Cc1cccc2c3c(ccc12)C1=C(C(=O)C3=O)[C@@H](C)CO1 [DIHYDROTANSHINONE I]
survival at 100 µM (Pseudomonas aeruginosa [2]): 90% | IC50 [3]: 0.68 µM

fold change (FC) [4]: 17 | fold change (FC) [5]: 178
SMILES: O=C(CSc1nc2cc([N+](=O)[O-])ccc2[nH]1)Nc1ccc(Oc2ccccc2)cc1

IC50 [6]: 100 µM
SMILES: CS(=O)(=O)c1nccc(-n2cnnn2)n1
